Test results as given in patent US7691844B2, “Nonpeptide substituted spirobenzoazepines as vasopressin antagonists” (Ortho-McNeil Pharmaceutical, Inc., priority 2000, dated 2010).

Legend:
[1] = molecular target: V1a (Homo sapiens, UniProt P37288); test: In-vitro receptor binding assay (3H-arginine-8-vasopressin), V1a
Method: (§1) (A) In-Vitro Binding Assay […] The reaction plates are allowed to sit at room temperature for one hour. The samples are filtered through Unifilter GF/C plates (presoaked in 0.3 polyethyleneimine). The plates are washed 5 times with cold physiological saline containing 0.05% Tween 20. After drying, the bottom of the filter plates are sealed and 0.025 ml of Microscint-20 is added to each filter. The top of the plate is sealed, and the plate is counted. Non-specific binding is determined by the addition of 1.25 μM […]-vasopressin in those wells. % Inh. is calculated as follows: […]

[2] = molecular target: human V2 receptor (Homo sapiens, UniProt P30518); test: In-vitro receptor binding assay (3H-arginine-8-vasopressin), V2
Method: as §1

[3] = @ 1 μM, read-out: Receptor Binding V2 (% Inh. @ concentration in μM)
[4] = @ 0.1 μM, read-out: Receptor Binding V2 (% Inh. @ concentration in μM)
[5] = @ 0.1 μM, read-out: Receptor Binding V1a (% Inh. @ concentration in μM)
[6] = @ 1 μM, read-out: Receptor Binding V1a (% Inh. @ concentration in μM)

V1a, sequence (P37288 whole entry): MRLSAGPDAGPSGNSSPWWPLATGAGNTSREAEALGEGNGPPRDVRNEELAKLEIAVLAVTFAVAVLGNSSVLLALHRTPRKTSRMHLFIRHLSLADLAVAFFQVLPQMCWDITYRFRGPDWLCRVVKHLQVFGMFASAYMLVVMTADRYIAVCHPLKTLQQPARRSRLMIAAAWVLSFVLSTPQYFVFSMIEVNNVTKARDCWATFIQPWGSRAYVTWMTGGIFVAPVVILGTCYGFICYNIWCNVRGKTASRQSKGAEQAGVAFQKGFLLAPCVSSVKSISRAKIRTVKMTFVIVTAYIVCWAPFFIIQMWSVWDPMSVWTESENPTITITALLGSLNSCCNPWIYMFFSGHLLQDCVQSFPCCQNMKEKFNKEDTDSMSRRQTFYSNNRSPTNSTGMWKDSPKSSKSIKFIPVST
human V2 receptor, sequence (P30518 whole entry): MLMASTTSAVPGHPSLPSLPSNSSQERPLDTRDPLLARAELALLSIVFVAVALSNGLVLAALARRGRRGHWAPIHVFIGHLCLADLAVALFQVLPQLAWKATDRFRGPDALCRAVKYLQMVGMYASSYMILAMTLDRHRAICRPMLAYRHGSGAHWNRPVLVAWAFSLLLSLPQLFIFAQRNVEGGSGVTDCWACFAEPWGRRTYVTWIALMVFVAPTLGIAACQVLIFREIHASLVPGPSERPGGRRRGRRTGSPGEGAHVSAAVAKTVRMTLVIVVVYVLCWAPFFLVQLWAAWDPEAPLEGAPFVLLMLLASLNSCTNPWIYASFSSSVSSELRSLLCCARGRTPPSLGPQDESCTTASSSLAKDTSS

COC(=O)CNC(=O)C1=CC2(CC1)CCN(C(=O)c1ccc(NC(=O)c3ccccc3-c3ccccc3)cc1)c1ccccc1C2 (stereo not shown) [Compound 12]
IC50 [1]: 0.013 µM
IC50 [2]: 0.018 µM

CCOC(=O)C1=CC2(CC1)CCN(C(=O)c1ccc(NC(=O)c3ccccc3C)cc1)c1ccccc1C2 (stereo not shown) [Compound 162]
IC50 [1]: 0.069 µM
inhibition at 0.25 µM ([2]; @ 0.25 μM, read-out: Receptor Binding V2 (% Inh. @ concentration in μM)): 42%

CCCCCCCOc1ccc(C(=O)N2CCC3(C=CCCC3)Cc3ccccc32)cc1 (stereo not shown) [Compound 76]
IC50 [1]: 1 µM
inhibition at 1 µM [2, 3]: 0%

O=C(c1ccc(-n2cccn2)c(F)c1)N1CCC2(C=CCCC2)Cc2ccccc21 (stereo not shown) [Compound 156, 4-(3-Fluoro-4-(pyrazol-1-yl)benzoyl)-4-aza-[6,5]-spiro-[5,6]-benzododec-2′-ene]
IC50 [1]: 0.11 µM
inhibition at 1 µM [2, 3]: 13%

COc1cc(C(=O)N2CC[C@@]3(C=C(C(=O)NCCN(C)C)CC3)Cc3ccccc32)ccc1-n1ccc(CO)c1 [Compound 198]
IC50 [1]: 0.016 µM
inhibition at 0.1 µM [2, 4]: 0%

COc1cc(C(=O)N2CCC3(C=CCCC3)Cc3ccccc32)ccc1-n1ccc(CO)c1 (stereo not shown) [Compound 178, 4-[3-Methoxy-4-(3-hydroxymethylpyrrol-1-yl)benzoyl]-4-aza-[6,5]-spiro-[5,6]benzododec-2′-ene]
IC50 [1]: 0.013 µM
inhibition at 1 µM [2, 3]: 53%

Cc1ccc(F)cc1C(=O)Nc1ccc(C(=O)N2CCC3(C=C(C(=O)NCCN(C)C)CC3)Cc3ccccc32)c(Cl)c1 (stereo not shown) [Compound 136]
inhibition at 0.1 µM [1, 5]: 60%
IC50 [2]: 0.052 µM

COc1cc(C(=O)N2CCC3(C=C(C(=O)NCCN(C)C)CC3)Cc3ccccc32)ccc1-n1ccc(CO)c1 (stereo not shown) [Compound 190, 4-[3-Methoxy-4-(3-hydroxymethylpyrrol-1-yl)benzoyl]-3′-[2-(N,N-dimethylamino)ethylcarboxamido]-4-aza-[6,4]-spiro-[5,6]-benzoundec-2′-ene]
IC50 [1]: 0.008 µM
inhibition at 1 µM [2, 3]: 28%

Cc1ccc(F)cc1C(=O)Nc1ccc(C(=O)N2CCC3(C=C(C(=O)O)CC3)Cc3ccccc32)c(Cl)c1 (stereo not shown) [Compound 143]
inhibition at 0.1 µM [1, 5]: 10%
inhibition at 0.1 µM [2, 4]: 67%

CN(C)CCNC(=O)C1=C[C@@]2(CC1)CCN(C(=O)c1ccc(N)cc1)c1ccccc1C2 [Compound 192]
IC50 [1]: 5.4 µM
inhibition at 1 µM [2, 3]: 0%

Cc1ncccc1C(=O)Nc1ccc(C(=O)N2CCC3(C=CCCC3)Cc3ccccc32)cc1 (stereo not shown) [Compound 105]
IC50 [1]: 0.035 µM
IC50 [2]: 1 µM

CC(C)CCN1CCC(Oc2ccc(C(=O)N3CCC4(C=CCCC4)Cc4ccccc43)cc2F)CC1 (stereo not shown) [Compound 173]
inhibition at 0.1 µM [1, 5]: 0%
inhibition at 1 µM [2, 3]: 0%

COc1cc(NC(=O)c2cc(F)ccc2C)ccc1C(=O)N1CCC2(C=C(C(=O)O)CC2)Cc2ccccc21 (stereo not shown) [Compound 175]
inhibition at 0.1 µM [1, 5]: 15%
IC50 [2]: 0.11 µM

COc1ccc(C(=O)N2CCC3(C=CCCC3)Cc3ccccc32)c(OC)c1 (stereo not shown) [Compound 74]
IC50 [1]: 0.19 µM
Receptor Binding V2 (% Inh. @ concentration in μM) ([2]; @ 1 μM): 27% @ 1

CSc1ccc(C(=O)N2CCC3(C=CCCC3)Cc3ccccc32)cc1 (stereo not shown) [Compound 92]
IC50 [1]: 0.066 µM
inhibition at 1 µM [2, 3]: 0%

Cc1ccc(F)cc1C(=O)Nc1ccc(C(=O)N2CCC3(C=C(CN4CCN(CCN5CCOCC5)CC4)CC3)Cc3ccccc32)c(Cl)c1 (stereo not shown) [Compound 141]
inhibition at 0.1 µM [1, 5]: 44%
IC50 [2]: 0.056 µM

COc1cc(C(=O)N2CCC3(C=C(C(=O)NCCN(C)C)CC3)Cc3ccccc32)ccc1[N+](=O)[O-] (stereo not shown) [Compound 186, 4-(3-Methoxy-4-nitrobenzoyl)-4-aza-3′-[2-(N,N-dimethylamino)ethylcarboxamido]-[6,4]-spiro-[5,6]benzoundec-2′-ene]
inhibition at 1 µM [1, 6]: 48%
inhibition at 1 µM [2, 3]: 11%

COC(=O)c1ccc(C(=O)N2Cc3ccccc3CC3(C=CCCC3)C2)cc1 (stereo not shown) [Compound 149]
IC50 [1]: 0.56 µM
inhibition at 1 µM [2, 3]: 54%

NCc1ccc(C(=O)N2CCC3(C=CCCC3)Cc3ccccc32)cc1 (stereo not shown) [Compound 42]
Receptor Binding V1a (% Inh. @ concentration in μM) ([1]; @ 10 μM): 0% @ 10
Receptor Binding V2 (% Inh. @ concentration in μM) ([2]; @ 10 μM): 24% @ 10

O=Cc1ccn(-c2ccc(C(=O)N3CCC4(C=CCCC4)Cc4ccccc43)cc2)c1 (stereo not shown) [Compound 152]
IC50 [1]: 0.084 µM
inhibition at 1 µM [2, 3]: 13%

O=C(Nc1ccc(C(=O)N2CCC3(C=C(C(=O)N(CCN4CCOCC4)CCN4CCOCC4)CC3)Cc3ccccc32)cc1)c1ccccc1-c1ccccc1 (stereo not shown) [Compound 146]
inhibition at 0.1 µM [1, 5]: 48%
inhibition at 0.1 µM [2, 4]: 39%

Cc1ccc(-c2ccccc2C(=O)Nc2ccc(C(=O)N3CCC4(C=CCCC4)Cc4ccccc43)cc2)cc1 (stereo not shown) [Compound 114]
IC50 [1]: 0.09 µM
IC50 [2]: 0.095 µM

O=C(O)c1ccc(C(=O)N2CCC3(C=CCCC3)Cc3ccccc32)cc1 (stereo not shown) [Compound 65, 4-(4-Carboxybenzoyl)-4-aza-[6,5]-spiro-[5,6]-benzododec-2′-ene]
inhibition at 1 µM [1, 6]: 8%
inhibition at 1 µM [2, 3]: 11%

Cc1ccc(F)cc1C(=O)Nc1ccc(C(=O)N2CCC3(C=C(C(=O)NCCO)CC3)Cc3ccccc32)c(Cl)c1 (stereo not shown) [Compound 11]
IC50 [1]: 0.028 µM
IC50 [2]: 0.01 µM

CC(C)CCOc1ccc(C(=O)N2CCC3(C=CCCC3)Cc3ccccc32)cc1 (stereo not shown) [Compound 179]
IC50 [1]: 0.096 µM
inhibition at 1 µM [2, 3]: 15%

C[S+]([O-])c1ccc(C(=O)Nc2ccc(C(=O)N3CCC4(C=CCCC4)Cc4ccccc43)cc2)cc1 (stereo not shown) [Compound 95]
Receptor Binding V1a (% Inh. @ concentration in μM) ([1]; @ 1 μM): 27% @ 1
Receptor Binding V2 (% Inh. @ concentration in μM) ([2]; @ 1 μM): 0% @ 1

O=C(Nc1ccc(C(=O)N2CCC3(C=CCCC3)Cc3ccccc32)cc1)c1ccc(Cl)cc1Cl (stereo not shown) [Compound 103]
IC50 [1]: 0.016 µM
IC50 [2]: 0.274 µM

COc1ccc(C(=O)N2CCC3(CCCCC3=O)Cc3ccccc32)cc1 (stereo not shown) [Compound 29]
IC50 [1]: 0.013 µM
inhibition at 1 µM [2, 3]: 8%

O=C(c1ccc(O)cc1)N1CCC2(C=CCCC2)Cc2ccccc21 (stereo not shown) [Compound 78]
IC50 [1]: 0.51 µM
inhibition at 1 µM [2, 3]: 3%

Cc1ccc(C(=O)Nc2ccc(C(=O)N3CCC4(C=CCCC4)Cc4ccccc43)cc2)cc1 (stereo not shown) [Compound 87]
IC50 [1]: 0.074 µM
inhibition at 1 µM [2, 3]: 47%

Cc1ccccc1C(=O)Nc1ccc(C(=O)C2Cc3ccccc3CC3(C=CCCC3)C2)cc1 (stereo not shown) [Compound 130]
IC50 [1]: 0.047 µM
Receptor Binding V2 (% Inh. @ concentration in μM) ([2]; @ 0.1 μM): 15% @ 0.1

COc1cc(NC(=O)c2cc(F)ccc2C)ccc1C(=O)N1CCC2(C=C(C=O)CC2)Cc2ccccc21 (stereo not shown) [Compound 170]
IC50 [1]: 0.055 µM
IC50 [2]: 0.21 µM

CSc1cccc(C(=O)Nc2ccc(C(=O)N3CCC4(C=CCCC4)Cc4ccccc43)cc2)c1 (stereo not shown) [Compound 93]
IC50 [1]: 0.015 µM
inhibition at 1 µM [2, 3]: 26%

O=C(c1cccc(Br)c1)N1CCC2(C=CCCC2)Cc2ccccc21 (stereo not shown) [Compound 51]
IC50 [1]: 5.6 µM
inhibition at 10 µM ([2]; @ 10 μM, read-out: Receptor Binding V2 (% Inh. @ concentration in μM)): 33%

O=C(c1ccc(OCC2CC2)cc1)N1CCC2(C=CCCC2)Cc2ccccc21 (stereo not shown) [Compound 181]
IC50 [1]: 0.066 µM
inhibition at 1 µM [2, 3]: 31%

CN(C)c1ccc(C(=O)N2CCC3(C=CCCC3)Cc3ccccc32)cc1 (stereo not shown) [Compound 60]
IC50 [1]: 0.051 µM
Receptor Binding V2 (% Inh. @ concentration in μM) ([2]; @ 1 μM): 14% @ 1

O=C(Nc1ccc(C(=O)C2Cc3ccccc3CC3(C=CCCC3)C2)cc1)c1ccccc1-c1ccccc1 (stereo not shown) [Compound 129]
Receptor Binding V1a (% Inh. @ concentration in μM) ([1]; @ 0.1 μM): 30% @ 0.1
Receptor Binding V2 (% Inh. @ concentration in μM) ([2]; @ 0.1 μM): 9% @ 0.1

N#Cc1cccc(C(=O)N2CCC3(C=CCCC3)Cc3ccccc32)c1 (stereo not shown) [Compound 52]
IC50 [1]: 0.53 µM
Receptor Binding V2 (% Inh. @ concentration in μM) ([2]; @ 10 μM): 28% @ 10

CC(=O)Oc1ccc(C(=O)N2CCC3(C=CCCC3)Cc3ccccc32)cc1 (stereo not shown) [Compound 172]
inhibition at 0.1 µM [1, 5]: 15%
inhibition at 1 µM [2, 3]: 0%

O=C(Nc1ccc(C(=O)N2CCC3(C=CCCC3)Cc3ccccc32)cc1)c1ccccc1Cl (stereo not shown) [Compound 96]
IC50 [1]: 0.012 µM
IC50 [2]: 0.18 µM

COc1ccccc1C(=O)Nc1ccc(C(=O)N2CCC3(C=CCCC3)Cc3ccccc32)cc1 (stereo not shown) [Compound 71]
IC50 [1]: 0.03 µM
IC50 [2]: 0.2 µM

COC(=O)C1=CC2(CC1)CCN(C(=O)c1ccc(-n3nccc3C)c(N)c1)c1ccccc1C2 (stereo not shown) [Compound 212]
inhibition at 0.125 µM ([1]; @ 0.125 μM, read-out: Receptor Binding V1a (% Inh. @ concentration in μM)): 29%
inhibition at 1 µM [2, 3]: 16%

COC(=O)C1=CC2(CC1)CCN(C(=O)c1ccc(NC(=O)c3ccccc3F)cc1)c1ccccc1C2 (stereo not shown) [Compound 133]
IC50 [1]: 0.015 µM
inhibition at 0.1 µM [2, 4]: 23%

O=C(c1ccc(Cl)cc1)N1CCC2(C=CCCC2)Cc2ccccc21 (stereo not shown) [Compound 39]
IC50 [1]: 1.1 µM
IC50 [2]: 10 µM
